Experimental findings from paper PMC4001856 (Brain research, 2013) are described below.

In the test the target is APP (amyloid precursor protein) (Homo sapiens, UniProt P05067). Put plainly: SPR. It is filed as binding.
APP (amyloid precursor protein), sequence (P05067 230-624 isoform P05067-4): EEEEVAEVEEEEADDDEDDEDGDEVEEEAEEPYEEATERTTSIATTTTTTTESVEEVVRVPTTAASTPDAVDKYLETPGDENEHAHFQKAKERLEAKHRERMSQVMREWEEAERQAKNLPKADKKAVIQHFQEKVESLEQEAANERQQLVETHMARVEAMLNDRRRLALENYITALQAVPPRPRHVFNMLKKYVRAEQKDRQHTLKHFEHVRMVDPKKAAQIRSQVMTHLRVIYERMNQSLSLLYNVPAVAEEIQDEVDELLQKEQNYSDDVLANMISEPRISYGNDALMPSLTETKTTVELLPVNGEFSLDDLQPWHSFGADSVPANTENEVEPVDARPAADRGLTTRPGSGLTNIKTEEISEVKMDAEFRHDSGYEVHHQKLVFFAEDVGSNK

Regarding `CN1[C@@H]2CC[C@H]1C[C@@H](OC(=O)c1c[nH]c3ccccc13)C2` [tropisetron], the Kd came to 900 nM.
